Marks after values point to notes of the source that are not given here.
What was measured:
SCC-1 cells [1] = experiment: Necrosis, trypan blue positivity of SCC-1 cells; assay type: cell-based, human; conditions: SCC-1 cultures or supernatants
Protocol: Cell number was recorded either by using the MTS proliferation bioassay (Cell Titer 96 One Solution, Promega, Madison, Wis.) and measuring absorbency after 4 hr on a Biorad (Model 3550) plate reader at 490 nm with a 750 nm background absorbance screening, or by directly counting cells. The MTS assay utilized 10 wells/treatment. For manual counts, cells were harvested by trypsinization with 0.25% trypsin/0.53 mM EDTA, centrif uiged, and counted with a hemacytometer. Cell viability was determined by trypan blue staining. At least two aliquots per well, and 4-10 wells/treatment, were counted at each time for manual counting.

SCC-1 cells [2] = experiment: Growth curves of SCC-1 cells, cell proliferation (MTT) assay, absorbency
Description: (§1) Cells were counted using a standard MTT assay. In general, each data point represents the average absorbency taken from 10 wells/treatment; error bars represent the S.E.M.

OGFr = molecular target: T1, OGFr (Homo sapiens, UniProt Q9NZT2); experiment: Receptor binding analysis of OGFr in SCC-1 tumors from treated mice; conditions: OGFr in SCC-1 tumors from mice of the treatment group; means ± SEM
T1 construct: Tumor tissues from some mice in each treatment group were removed at the time of death; from tissue; host or cells: SCC-1 squamous cell carcinoma xenograft tumors grown subcutaneously in nude mice
T1 sequence (Q9NZT2 1-677): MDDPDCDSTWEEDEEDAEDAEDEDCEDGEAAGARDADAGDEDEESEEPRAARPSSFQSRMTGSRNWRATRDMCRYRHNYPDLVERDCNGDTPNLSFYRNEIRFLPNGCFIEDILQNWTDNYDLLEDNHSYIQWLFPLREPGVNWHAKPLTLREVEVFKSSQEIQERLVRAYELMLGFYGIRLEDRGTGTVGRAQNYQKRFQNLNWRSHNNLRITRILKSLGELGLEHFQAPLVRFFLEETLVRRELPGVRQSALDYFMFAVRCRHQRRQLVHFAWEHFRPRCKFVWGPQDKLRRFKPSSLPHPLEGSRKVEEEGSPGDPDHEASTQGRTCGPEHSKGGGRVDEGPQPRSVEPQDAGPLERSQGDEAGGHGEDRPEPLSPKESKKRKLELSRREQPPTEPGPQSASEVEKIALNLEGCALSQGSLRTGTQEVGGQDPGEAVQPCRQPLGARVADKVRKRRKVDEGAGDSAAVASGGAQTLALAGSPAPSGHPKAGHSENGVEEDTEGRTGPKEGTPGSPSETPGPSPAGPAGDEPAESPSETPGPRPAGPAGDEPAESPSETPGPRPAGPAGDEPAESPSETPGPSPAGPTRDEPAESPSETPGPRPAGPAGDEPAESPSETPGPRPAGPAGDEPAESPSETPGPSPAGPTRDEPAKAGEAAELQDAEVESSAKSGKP
Protocol: Tumor tissues from some mice in each treatment group were removed at the time of death, washed free of blood and connective tissue, and immediately frozen in liquid nitrogen. Tissues were assayed following the procedures published previously [ 16]. Saturation binding isotherms were generated using GraphPad Prism software; binding affinity (Kd) and capacity (Bmax) values were provided by the computer software.

MIA PaCa-2 cells = experiment: MIA PaCa-2 xenograft in nude mice, tumor appearance, growth and termination day measurements (Example 7); assay type: in vivo, BALB/c-nu/nu nude mice
Description: Male 4 week old BALB/c-nu/nu nude mice purchased from Harlan Laboratories (Indianapolis, Ind.) were housed in pathogen-free isolators in the Department of Comparative Medicine at the Penn State University College of Medicine. All procedures were approved by the IACUC committee of the Penn State University College of Medicine and conformed to the guidelines established by NIH. Mice were allowed 48 hr to acclimate prior to beginning experimentation.
MIA PaCa-2 cells (10^6 cells/mouse) were inoculated into nude mice by subcutaneous injection into the right scapular region; mice were not anesthetized for this procedure.
All drugs were dissolved in saline and prepared weekly. Injections were given within 1 hr of tumor cell inoculation.
Mice were weighed weekly throughout the experiment, and observed daily for the presence of tumors. The latency for a visible tumor to appear, and the time until tumors were measurable (i.e., 62.5 mm^3) were recorded. Tumors were measured using calipers every day after tumor appearance. Tumor volume was calculated using the formula w^2×1×π/6, where the length is the longest dimension, and width is the dimension perpendicular to length.
According to IACUC guidelines, mice were terminated when tumors became ulcerated, or tumors grew to 2 cm in diameter. Forty-five days following tumor cell inoculation, all mice were euthanized by an overdose of sodium pentobarbital (100 mg/kg) and killed by cervical dislocation; mice (with tumors) were weighed. Tumors and spleens were removed and weighed, and the lymph nodes, liver, and spleen examined for metastases.

MiaPaCa-2 cells [3] = experiment: Growth curves of MiaPaCa-2 cells, cell proliferation (MTT) assay, absorbency; conditions: MiaPaCa-2, 5-FU 10^-5 M and/or OGF 10^−6 M
Description: as §1

MiaPaCa-2 cells [4] = experiment: Gemcitabine and OGF cell cycle phase analysis by flow cytometry; assay type: cell-based, human; conditions: 2 to 24 hours after OGF exposure
Protocol: To investigate the exact cell cycle phase where gemcitabine and/or OGF exerted their effects, flow cytometry was performed.

[5] = 48 h, paclitaxel 10^−7 M and/or OGF 10^−6 M
[6] = 72 h, paclitaxel 10^−7 M and/or OGF 10^−6 M
[7] = 96 h, paclitaxel 10^−7 M and/or OGF 10^−6 M

`CC(=O)O[C@H]1C(=O)[C@@]2(C)[C@H]([C@H](OC(=O)c3ccccc3)[C@]3(O)C[C@H](OC(=O)[C@H](O)[C@@H](NC(=O)c4ccccc4)c4ccccc4)C(C)=C1C3(C)C)[C@]1(OC(C)=O)CO[C@@H]1C[C@@H]2O` [paclitaxel] was tested, and the “necrosis, number of trypan blue positive cells versus control” value (SCC-1 cells [1]) was “No differences in necrosis”, the “decrease in cell number from control levels” value (SCC-1 cells [2]; 24 h, paclitaxel 10^−7 M and/or OGF 10^−6 M) was 14.2% and the “decrease in cell number from control levels” value (SCC-1 cells [2]; [5]) was 34.4%. The “decrease in cell number from control levels” value (SCC-1 cells [2]; [6]) was 58%, the “decrease in cell number from control levels” value (SCC-1 cells [2]; [7]) was 70% and the “decrease in cell number from control levels” value (SCC-1 cells [2]; 96 h, paclitaxel 10^−8 M alone or with OGF 10^−6 M) was 19.3%. For the same molecule, the “Bmax, fmol/mg protein” value (OGFr) was 27.8 ± 1.6 fmol/mg protein.

[Met^5]-enkephalin [OGF] was tested, and the “day from which tumor volume differed from controls” value (MIA PaCa-2 cells; at least p<0.05) was 14 days, the “mice with measurable tumors” value (MIA PaCa-2 cells; day 10) was 60% and the “tumor volumes decreased from control values” (MIA PaCa-2 cells; day 45) was 46%. For the same molecule, the “Tumor Volume, mm^3” value (MIA PaCa-2 cells; day 45, means ± SEM) was 4849 ± 490*** mm^3, the “Tumor Weight” value (MIA PaCa-2 cells; day 45, means ± SEM) was 3.5 ± 0.5 g and the “Latency to measurable tumor” value (MIA PaCa-2 cells; means ± SEM) was 14.2 ± 0.8 days. For the same molecule, the “Latency to visible tumor” value (MIA PaCa-2 cells; means ± SEM) was 10.7 ± 0.8 days, the “Tumor Incidence, day 16” value (MIA PaCa-2 cells; mice with tumor/N) was 10/10 and the “Tumor Incidence, day 10” value (MIA PaCa-2 cells; mice with tumor/N, OGF 10 mg/kg daily and/or gemcitabine 120 mg/kg every 3 days i.p.) was 6/10. For the same molecule, the “weights of tumors decreased from control levels” value (MIA PaCa-2 cells; termination day (day 45)) was 36%, the “decrease in cell number from control levels” value (SCC-1 cells [2]; [5]) was 11.9% and the “decrease in cell number from control levels” value (SCC-1 cells [2]; [6]) was 6.7%. For the same molecule, the “decrease in cell number from control levels” value (SCC-1 cells [2]; [7]) was 12.7%, the “decrease in cell number from controls” value (MiaPaCa-2 cells [3]; 24 h) was 7.1% and the “decrease in cell number from controls” value (MiaPaCa-2 cells [3]; 48 h) was 7.0%. For the same molecule, the “decrease in cell number from controls” value (MiaPaCa-2 cells [3]; 72 h) was 6.9%, the “decrease in cell number from controls” value (MiaPaCa-2 cells [3]; 96 h) was 14.2% and the “increase of cells in the G0/G1 phase of the cell cycle” value (MiaPaCa-2 cells [4]) was “no significant increases into the G0/G1 phase”. The “Bmax, fmol/mg protein” value (OGFr) was 27.2 ± 2.2 fmol/mg protein.

— US8003630B2, “Combinatorial therapies for the treatment of neoplasias using the opioid growth factor receptor” (The Penn State Research Foundation, priority 2004, dated 2011)
